Experimental data reported in paper PMC9395504 (Investigational New Drugs, 2022).
“Also recorded” adds a separate entry of the source. Like-named read-outs stand apart in the source and are kept apart here. Marks after values point to notes of the source that are not given here.

Assays:
[1] = tested on: TP53-WT cancer xenograft models; conditions: daily oral administration; cited from earlier work
[2] = tested on: TP53-WT melanoma cell lines; design: method as in PMID 24810962; conditions: combined with inhibitors of PI3K or MAPK signaling pathway; cited from earlier work
p53 pathway = conditions: cited from earlier work
serum MIC-1 protein = conditions: single-agent AMG 232, cited from earlier work
[3] = Dose escalation (3+3+3): dose-limiting toxicity and maximum tolerated dose; assay type: in vivo, human; conditions: once daily, seven days of a 21-day cycle
Description: Trametinib, 2 mg once daily (both Arms), and dabrafenib, 150 mg twice daily (Arm 1 only), were subsequently started on day 8, cycle 1 (Fig. 1). Treatment was administered continuously in consecutive treatment cycles until disease progression, intolerability, or withdrawal of consent.
We defined the dose-limiting toxicity (DLT) period as the first 28 days of each dose-escalation cohort’s treatment cycle (DLT window). […] Non-hematologic DLTs included grade ≥3 nausea, vomiting, or diarrhea enduring >48 hours despite standard medical management, grade 3 fatigue persisting >7 days or grade 4 fatigue, any grade ≥3 metabolic laboratory abnormalities that are not controlled within 48 hours by standard medical management.

[4] = Plasma pharmacokinetics of AMG 232 at steady state (LC-MS/MS, noncompartmental); assay type: in vivo, human; conditions: for AUC(0-t): read-out: AUC24hr
Text: The following PK parameters were estimated: maximum observed plasma concentration (Cmax), time to reach Cmax (tmax), area-under-the-plasma concentration-time curve (AUC), terminal phase half-life (t1/2,z), and apparent total body clearance (CL/F). We performed noncompartmental analyses for PK parameter estimation using Phoenix® WinNonlin® version 6.4 or later software (Certara™, Princeton, NJ). […] We prepared descriptive statistics, tables, and graphs using Phoenix® WinNonlin® and Prism version 9.1.1 (GraphPad Software, San Diego, CA).

[5] = tested on: TP53-WT patient-derived melanoma xenografts; conditions: 50 mg/kg, alone or combined with dabrafenib and trametinib; cited from earlier work
[6] = human, plasma, oral, 120 mg, Cycle 1 Day 7, AMG 232 monotherapy, Arm 2, 120 mg, geometric mean (CV%)
[7] = human, plasma, oral, 120 mg, Cycle 2 Day 7, co-administered with T + D, Arm 1, 120 mg, geometric mean (CV%)
[8] = human, plasma, oral, 120 mg, Cycle 2 Day 7, co-administered with T, Arm 2, 120 mg, geometric mean (CV%)
[9] = human, plasma, oral, 180 mg, Cycle 1 Day 7, AMG 232 monotherapy, Arm 1, 180 mg, geometric mean (CV%)
[10] = human, plasma, oral, 180 mg, Cycle 2 Day 7, co-administered with T + D, Arm 1, 180 mg, geometric mean (CV%)
[11] = human, plasma, oral, 240 mg, Cycle 1 Day 7, AMG 232 monotherapy, Arm 2, 240 mg, geometric mean (CV%)
[12] = human, plasma, oral, 240 mg, Cycle 2 Day 7, co-administered with T, Arm 2, 240 mg, geometric mean, n = 2

In the case of CC(C)[C@@H](CS(=O)(=O)C(C)C)N1C(=O)[C@@](C)(CC(=O)O)C[C@H](c2cccc(Cl)c2)[C@H]1c1ccc(Cl)cc1 [AMG 232], the “effective doses, dose-dependent antitumor activity” value [1] is listed as 9.1 to 78 mg/kg, the “interaction in cell death” value [2] is listed as “synergy” and the “doses with more consistent and pronounced effect on the p53 pathway” value (p53 pathway) is listed as 25 to 100 mg/kg. For the same compound, the “lowest dose affecting the p53 pathway (upregulation of p21 and MIC-1)” value (p53 pathway; doses as low as) was 5 mg/kg, the “biologically effective AMG 232 dose in humans” value (serum MIC-1 protein; daily) was “at least 240 mg” and the “daily dose at which significant increases in serum MIC-1 protein were seen” value (serum MIC-1 protein) was “higher than 240 mg”. For the same compound, the “MTD of AMG 232 combined with dabrafenib plus trametinib” value ([3]; Arm 1) was 120 mg, the “MTD of AMG 232 combined with trametinib” value ([3]; Arm 2) was 120 mg and the AUC24hr ([4]; Cycle 1 Day 7, AMG 232 monotherapy, Arm 1, 120 mg, geometric mean (CV%)) was 5140 (59.4%) n = 4 hr•ng/mL. For the same compound, the AUC24hr ([4]; Cycle 2 Day 7, co-administered with T, Arm 2, 180 mg, geometric mean (CV%)) was 9410 (107.0%)^a n = 5 hr•ng/mL, the “Effect of trametinib ± dabrafenib on AMG 232 PK exposures (Cmax, AUC24hr)” value ([4]; cycle 2 day 7 vs cycle 1 day 7, Wilcoxon matched-pairs signed-rank test p>0.05) was “not significant; also recorded: not significantly altered” and the Cmax ([4]; human, plasma, oral, 120 mg, Cycle 1 Day 7, AMG 232 monotherapy, Arm 1, 120 mg, geometric mean (CV%)) was 491 ng/mL. For the same compound, the Cmax [4, 6] was 914 ng/mL, the AUC(0-t) [4, 6] was 9810 ng·h/mL and the Cmax [4, 7] was 392 ng/mL. The AUC(0-t) [4, 7] was 3140 ng·h/mL, the Cmax [4, 8] was 630 ng/mL and the AUC(0-t) [4, 8] was 6740 ng·h/mL. It also gave a Cmax [4, 9] of 847 ng/mL, an AUC(0-t) [4, 9] of 5890 ng·h/mL and a Cmax ([4]; human, plasma, oral, 180 mg, Cycle 1 Day 7, AMG 232 monotherapy, Arm 2, 180 mg, geometric mean (CV%)) of 1250 ng/mL. For the same compound, the Cmax [4, 10] was 647 ng/mL, the AUC(0-t) [4, 10] was 4750 ng·h/mL and the Cmax ([4]; human, plasma, oral, 180 mg, Cycle 2 Day 7, co-administered with T, Arm 2, 180 mg, geometric mean (CV%)) was 1010 ng/mL. For the same compound, the Cmax [4, 11] was 3300 ng/mL, the AUC(0-t) [4, 11] was 21100 ng·h/mL and the Cmax [4, 12] was 953 ng/mL. For the same compound, the AUC(0-t) [4, 12] was 6280 ng·h/mL, the Tmax ([4]; human, plasma, oral, Cycle 2 Day 7, co-administered with T, Arm 2, 240 mg, median (min-max)) was 1.5 h and the antitumor activity [5] was “demonstrated antitumor activity”.
